Measured values: patent US10993976B2, “Medicament for treating uremia and proteinuria” (Shandong Zhonghai Pharmaceutical CO. LTD, priority 2016, dated 2021)

Test system: patient who is suffering from CRF of renal insufficiency at decompensation stage
Test: Clinical application of the medicament in treating uremia and proteinuria (Embodiment 7 test method)
Format: in vivo, human
Text: Patient selection: choose the patient who is suffering from CRF of renal insufficiency at decompensation stage (The content of SCr is within the range of 186-442 umol/L) to study. The primary disease is chronic glomerulonephritis (CGN) and nephrotic syndrome (NS), except CRF caused by renal arteriosclerosis, diabetic nephropathy and renal cysts.
These investigated patients were randomly divided into groups, 50 patients in each group, aged 19-66 years (mean 44.6±12.6 years), with a course of disease 12-46 months (mean 22.6±8.6 months).
Treatment group 1-6: The patients in embodiment 1-6 received the medicament mentioned of the invention, with a dose of 3 g/day, three times a day.
Control group: The patients received the oral administration of coated aldehyde oxystarch 5 g-10 g, twice a day.
All groups were treated with 1 month as a course of treatment.
The patients stopped using Chinese and western medicine 2 weeks before treatment. […] They were given high quality low protein, low phosphorus and high calorie diet, correction of water and electrolyte disorders and acidosis, and anti-infection, in order to remove those reversible factors that may cause temporary renal dysfunction. Lotensin 5-20 mg was given to the patients with hypertension, once a day, or/and nifedipine 10-20 mg, three or four times a day.
X2 test was used for enumeration data and t test was used for measurement data. […]

[1] = 50 patients per group, after 3 courses of treatment (1 month each), medicament 3 g/day
[2] = patients, after 3 courses of treatment

coated aldehyde oxystarch [Contrast] was tested, and the “Total effective rate (%)” value (50 patients per group, after 3 courses of treatment) was 64%, the “Effective (case)” value [1] was 22 case and the “Ineffective (case)” value [1] was 18 case. For the same substance, the “Markedly effective (case)” value [1] was 10 case, the “Blood coagulation factor I” value (Fib, patients, after 3 courses of treatment) was 3.88 ± 0.48 g/L and the Hb (hemoglobin, patients, after 3 courses of treatment) was 82.4 ± 9.5 g/L. For the same substance, the Urine protein (patients, 24 h urine protein, after 3 courses of treatment) was 2.78 ± 1.59 g/24 h, the Blood usea nitrogen [2] was 16.0 ± 6.4 mmol/L and the SCr [2] was 298.5 ± 76.8 µmol/L. The Whole blood viscosity [2] was 4.98 ± 1.0 and the Alb (plasma albumin, patients, after 3 courses of treatment) was 30.4 ± 3.0 g/L.
